Test results taken from patent US20040023884A1, “Biologically active peptides from functional domains of bactericidal/permeability-increasing protein and uses thereof” (priority 1993, published 2004).
Square brackets hold non-standard residues; d marks the D form. Ends that are not written are not given here. 1Nal = N[C@@H](Cc1cccc2ccccc12)C(=O)O; d1Nal = N[C@H](Cc1cccc2ccccc12)C(=O)O; Pal = not defined here

How the values were obtained:
[1] = tested on: E. coli 0111:B4 (smooth) bacteria; assay: Radial diffusion bactericidal assay, E. coli 0111:B4; format: cell-based; settings: radial diffusion; PROBIT analysis; E. coli O111:B4 (smooth)
[2] = 3H-heparin binding assay (affinity and capacity); settings: for Heparin Capacity: heparin bound at saturation; for Kd: read-out: Heparin Affinity
Method: Briefly, each fragment was added to wells of a 96-well microtiter plate having a polyvinylidene difluoride membrane (Immunobilon-P, Millipore, Bedford, Mass.) disposed at the bottom of the wells. […] Positive control wells contained varying amounts of rBPI23. […] DuPont-NEN, Wilmington, Del.) were made in the blocking buffer and incubated in the BPI peptide-containing wells for one hour at 4° C. The unbound heparin was aspirated and the wells were washed three times with blocking buffer, dried and removed for quantitation in a liquid scintillation counter (Model 1217, LKB, Gaithersburg, Md.). Although BSA in the blocking buffer did show a low affinity and capacity to bind heparin, this was considered physiologically irrelevant and the background was routinely subtracted from the test compound signal.

[3] = tested on: rough mutant E. coli J5 bacteria; assay: Radial diffusion bactericidal assay, E. coli J5; format: cell-based; settings: radial diffusion; for pmol added to well to achieve a 30 mm^2 bactericidal zone, E. coli J5: PROBIT analysis, E. coli J5 (rough)
Method: BPI proteolytic fragments produced according to Example 1 were screened for bactericidal effects using rough mutant E. coli J5 bacteria in a radial diffusion assay. Specifically, an overnight culture of E. coli J5 was diluted 1:50 into fresh tryptic soy broth and incubated for 3 hours at 37° C. to attain log phase growth of the culture. Bacteria were then pelleted at 3,000 rpm for 5 minutes in a Sorvall RT6000B centrifuge (Sorvall Instruments, Newton, Conn.). 5 mL of 10 mM sodium phosphate buffer (pH 7.4) was added and the preparation was re-pelleted. […] The bacteria were diluted to 4×10^6 CFU/mL in 10 mL of molten underlayer agarose (at approximately 45° C.) and inverted repeatedly to mix in 15 mL polypropylene tubes conventionally used for this purpose.
The entire contents of such tubes were then poured into a level square petri dish and distributed evenly by rocking the dish side-to-side. […] A series of wells were then punched into the hardened agarose using a sterile 3 mm punch attached to a vacuum apparatus. The punch was sterilized with 100% alcohol and allowed to air dry prior to use to avoid contaminating the bacterial culture.
5 or 10 μL of each of the BPI fragments were carefully pipetted into each well. As a negative control, dilution buffer (pH 8.3) was added to a separate well, and rBPI23 at concentrations of 5 μg/mL and 1 μg/mL were also added as positive controls. Each plate was incubated at 37° C. for 3 hours, and then 10 mL of molten overlayer agarose (at approximately 45° C.) was added into the level petri dish, allowed to harden and incubated overnight at 37° C. […] The bacterial zones were measured with a micrometer.

Staphylococcus aureus = assay: Radial diffusion bactericidal assay, Staphylococcus aureus; format: cell-based; settings: radial diffusion; PROBIT analysis; S. aureus

Row | Substance | pmol added to well to achieve a 30 mm^2 bactericidal zone, E. coli O111:B4 [1] | Heparin Capacity [2] | Kd [2] | pmol added to well to achieve a 30 mm^2 bactericidal zone, E. coli J5 [3] | pmol added to well to achieve a 30 mm^2 bactericidal zone, S. aureus (Staphylococcus aureus) | Heparin Affinity [2] | heparin binding capacity (in words) [2] | bactericidal activity (in words) ([3]; E. coli J5)
1 | GWLIQLFHKKIESALRNKMNS [BPI.55] | 3,702.60 pmol | 166.1 ng | 368 nM | 299.36 pmol | 28,204.45 pmol | – | – | –
2 | QQGTAALQKELKRIK [BPI.1] | b (no detectable activity up to 5 μg/well) | no binding | – | b (no detectable activity up to 5 μg/well) | b (no detectable activity up to 5 μg/well) | no binding | – | –
3 | IKISGKWKAKQRFLK [BPI.56] | b (no detectable activity up to 5 μg/well) | 135.5 ng | 115 nM | 1,387.00 pmol | b (no detectable activity up to 5 μg/well) | – | – | –
4 | IKISGKWKAKKRFLK [BPI.79] | b (no detectable activity up to 5 μg/well) | 110.2 ng | 199 nM | 5,827.30 pmol | b (no detectable activity up to 5 μg/well) | – | – | –
5 | IKISGKAβ-(1-naphthyl)KAQKRFLK (IKISGK[1Nal]KAQKRFLK) [BPI.67] | b (no detectable activity up to 5 μg/well) | 250.4 ng | 108 nM | 2,424.30 pmol | b (no detectable activity up to 5 μg/well) | – | – | –
6 | IKISGAWAAQKRFLK [BPI.59] | b (no detectable activity up to 5 μg/well) | 106.7 ng | 175 nM | 3,718.00 pmol | b (no detectable activity up to 5 μg/well) | – | – | –
7 | IKISGKFKAQKRFLK [BPI.61] | b (no detectable activity up to 5 μg/well) | 85.2 ng | 58.3 nM | 86,541.00 pmol | b (no detectable activity up to 5 μg/well) | – | – | –
8 | KSKVGWLIYLFHKK [BPI.125] | 11,306.79 pmol | – | – | 428.85 pmol | b (no detectable activity up to 5 μg/well) | – | – | –
9 | IKISGKWKAQKRAβ-(3-pyridyl)LK [BPI.72] | b (no detectable activity up to 5 μg/well) | 102.8 ng | 145 nM | 2,925.67 pmol | b (no detectable activity up to 5 μg/well) | – | – | –
10 | KSKVGWLISLFHKK [BPI.104] | 1,376.42 pmol | – | – | 385.85 pmol | 27,933.64 pmol | – | – | –
11 | KSKVGFDLIQLPHKK [BPI.128] | b (no detectable activity up to 5 μg/well) | – | – | 2,271.14 pmol | b (no detectable activity up to 5 μg/well) | – | – | –
12 | KSKVGWDLIQLFHKK [BPI.126] | b (no detectable activity up to 5 μg/well) | – | – | 1,979.97 pmol | b (no detectable activity up to 5 μg/well) | – | – | –
13 | Aβ-(1-naphthyl)Aβ-(1-naphthyl)RFLKF ([1Nal][1Nal]RFLKF) [BPI.140] | 605.34 pmol | – | – | 84.76 pmol | 9,977.71 pmol | – | – | –
14 | IKISGKWKAQERFLK [BPI.136] | b (no detectable activity up to 5 μg/well) | – | – | 18,846.44 pmol | b (no detectable activity up to 5 μg/well) | – | – | –
15 | KSKVGAD-2-β-(1-naphthyl)LIQLFHKK (KSKVG[d1Nal]LIQLFHKK; not fully specified) [BPI.131] | b (no detectable activity up to 5 μg/well) | – | – | 1,438.21 pmol | b (no detectable activity up to 5 μg/well) | – | – | –
16 | IKISGKWDKAQKRFLK [BPI.66] | b (no detectable activity up to 5 μg/well) | 111.6 ng | 296 nM | 5,846.50 pmol | b (no detectable activity up to 5 μg/well) | – | – | –
17 | CIKISGKWKAQKRFLK [BPI.58] | b (no detectable activity up to 5 μg/well) | 231.2 ng | 194 nM | 1,050.11 pmol | b (no detectable activity up to 5 μg/well) | – | extremely high heparin capacity | highly bactericidal
18 | KSKVKAβ-(1-naphthyl)LIQLFHKK (KSKVK[1Nal]LIQLFHKK) [BPI.116] | 37,539.59 pmol | – | – | 73.82 pmol | b (no detectable activity up to 5 μg/well) | – | – | –
19 | KSKVGW(p-amino)LIFLFHKK (KSKVG[p‑amino‑tryptophan]LIFLFHKK) [BPI.123] | 6,651.23 pmol | – | – | 247.20 pmol | b (no detectable activity up to 5 μg/well) | – | – | –
20 | ADADIKISGICWKAQKRFLK [BPI.71] | b (no detectable activity up to 5 μg/well) | 158.9 ng | 75.6 nM | 2,296.94 pmol | b (no detectable activity up to 5 μg/well) | – | – | –
21 | KSKVGA2-β-(1-naphthyl)LIQLFHKK (KSKVG[1Nal]LIQLFHKK; not fully specified; printed as KSKVGA2-β-(1-naphthyl)LIQLFHKK) [BPI.130] | 4,377.92 pmol | – | – | 325.75 pmol | b (no detectable activity up to 5 μg/well) | – | – | –
22 | BPI.65(Ox) (CIKISGKWKAQKRFLKC; not fully specified (bridges); also: oxidized) | b (no detectable activity up to 5 μg/well) | – | – | 849.79 pmol | 11,960.00 pmol | – | – | –
23 | KSKVGA(pyridyl)LIQLFHKK (KSKVG[Pal]LIQLFHKK; reading uncertain; also: printed as KSKVGA(pyridyl)LIQLFHKK) [BPI.132] | b (no detectable activity up to 5 μg/well) | – | – | 4,505.79 pmol | b (no detectable activity up to 5 μg/well) | – | – | –
24 | IKISGKWKAWKRAβ-(1-naphthyl)LKK (IKISGKWKAWKR[1Nal]LKK) [BPI.105] | 206.98 pmol | – | – | 65.35 pmol | 6,260.97 pmol | – | – | –
25 | CIKISGKWKAQKRPLC [BPI.57] | b (no detectable activity up to 5 μg/well) | – | – | 514.03 pmol | b (no detectable activity up to 5 μg/well) | – | – | –
26 | KSKVGWLIQLFWKK [BPI.107] | 4,665.64 pmol | – | – | 384.67 pmol | b (no detectable activity up to 5 μg/well) | – | – | –
